Drawing on patent US9611262B2, “Substituted 2-azabicycles and their use as orexin receptor modulators” (JANSSEN PHARMACEUTICA NV, priority 2014, dated 2017), this text covers Ki for 20 molecules.

The structures appear in SMILES notation.

Test [1] addresses rat orexin 1 receptor (Rattus norvegicus, UniProt P56718). Nature of the test: Rat orexin 1 receptor radioligand binding (competitive). The settings on record: HEK293 cells stably expressing rat orexin 1 receptor; 4 nM radioligand; averages of 2-20 runs; read-out: rOX1 Ki. The method, boiled down:
(§1)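 Competition binding used HEK293 cells expressing rat OX1 or CHO cells expressing human OX1, with 4 nM final [3H]-labelled thiazolyl-oxadiazolyl-pyrrolidinyl methanone radioligand in PBS. Compounds were tested at 7 concentrations (0.1 nM–10 μM) for 60 min at room temperature, then filtered; 10 μM almorexant defined nonspecific binding. Ki was derived from the one-site IC50 and the radioligand Kd.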

The target in test [2] is human orexin 1 receptor (Homo sapiens (Human), UniProt O43613). Nature of the test: Human orexin 1 receptor radioligand binding (competitive). The settings on record: CHO cells stably expressing human orexin 1 receptor; 4 nM radioligand; averages of 2-20 runs; read-out: hOX1 Ki. The method, boiled down: as §1
human orexin 1 receptor, sequence (O43613 whole entry): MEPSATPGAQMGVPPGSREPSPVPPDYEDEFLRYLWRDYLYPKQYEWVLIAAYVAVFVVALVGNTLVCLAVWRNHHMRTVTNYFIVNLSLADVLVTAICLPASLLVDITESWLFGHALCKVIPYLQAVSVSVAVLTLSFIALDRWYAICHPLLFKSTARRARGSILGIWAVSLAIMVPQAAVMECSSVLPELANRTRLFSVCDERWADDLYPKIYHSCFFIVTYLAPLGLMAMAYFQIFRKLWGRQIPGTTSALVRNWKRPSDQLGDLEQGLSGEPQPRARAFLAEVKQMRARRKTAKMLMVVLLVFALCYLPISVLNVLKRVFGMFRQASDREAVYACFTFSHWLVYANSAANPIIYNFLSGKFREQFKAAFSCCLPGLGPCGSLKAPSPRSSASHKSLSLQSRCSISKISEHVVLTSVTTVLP
The target of test [3] is human orexin 2 receptor (Homo sapiens (Human), UniProt O43614). Nature of the test: Human orexin 2 receptor radioligand binding ([3H]-EMPA competition). The settings on record: HEK293 stably expressing human orexin 2 receptor; 2 nM [3H]-EMPA; averages of 2-20 runs; read-out: hOX2 Ki. Put shortly: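 Membranes-free whole HEK293 cells stably expressing human OX2 receptor incubated with [3H]-EMPA and compound (7 concentrations, 0.1 nM–10 μM, ≤0.1% DMSO) for 60 min at room temperature; nonspecific binding with 10 μM almorexant. Filtration and scintillation counting; one-site IC50 converted to Ki using predetermined Kd, triplicates averaged over 2-20 runs.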
human orexin 2 receptor, sequence (O43614 whole entry): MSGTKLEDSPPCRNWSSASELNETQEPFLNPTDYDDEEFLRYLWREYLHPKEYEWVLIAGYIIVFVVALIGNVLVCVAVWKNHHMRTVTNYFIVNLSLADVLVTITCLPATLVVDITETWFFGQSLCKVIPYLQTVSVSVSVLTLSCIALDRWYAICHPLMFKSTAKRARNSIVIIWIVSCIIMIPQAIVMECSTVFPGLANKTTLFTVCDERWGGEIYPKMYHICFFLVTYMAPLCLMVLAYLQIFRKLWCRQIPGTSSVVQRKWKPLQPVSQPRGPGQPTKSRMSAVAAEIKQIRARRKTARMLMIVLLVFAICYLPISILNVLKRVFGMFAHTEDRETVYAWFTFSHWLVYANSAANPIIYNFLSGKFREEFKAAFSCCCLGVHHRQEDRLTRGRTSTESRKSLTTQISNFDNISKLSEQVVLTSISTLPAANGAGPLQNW

Regarding `O=C(c1cccc(F)c1-c1ncccn1)N1[C@H](CF)[C@@H]2CC[C@H]1[C@H](Oc1ccc(C(F)(F)F)cn1)C2` [Example 79, (3-fluoro-2-(pyrimidin-2-yl)phenyl)((1S,3S,4R,6R)-3-(fluoromethyl)-6-((5-(trifluoromethyl)pyridin-2-yl)oxy)-2-azabicyclo[2.2.2]octan-2-yl)methanone], the Ki (as a rule, the equilibrium dissociation constant of an inhibitor or competing ligand from its target) was 49 nM in test [1], 46 nM in test [2] and more than 10000 nM in test [3].
On the same counts, the results for `O=C(c1cc(F)ccc1-c1ncc(F)cn1)N1[C@H](CF)[C@@H]2CC[C@H]1[C@H](Oc1ccc(C(F)(F)F)cn1)C2` [Example 80, (5-fluoro-2-(5-fluoropyrimidin-2-yl)phenyl)((1S,3S,4R,6R)-3-(fluoromethyl)-6-((5-(trifluoromethyl)pyridin-2-yl)oxy)-2-azabicyclo[2.2.2]octan-2-yl)methanone] are 43 nM, 35 nM and 4170 nM.
Regarding `Cc1ccc(-n2nccn2)c(C(=O)N2[C@H](C)[C@H]3C[C@@H](Oc4ccc(C(F)F)cn4)[C@@H]2C3)n1` [Example 110, [(1R,2R,4S,5R)-5-[[5-(difluoromethyl)-2-pyridyl]oxy]-2-methyl-3-azabicyclo[2.2.1]heptan-3-yl]-[6-methyl-3-(triazol-2-yl)-2-pyridyl]methanone], the figures for the Ki in test [1], in test [2] and in test [3] were 7 nM, 5 nM and 146 nM, respectively.
As for `C[C@@H]1[C@@H]2CC[C@@H]([C@H](Oc3ccc(C(F)(F)F)cn3)C2)N1C(=O)c1cccc(F)c1-c1ncccn1` [Example 148, (3-fluoro-2-pyrimidin-2-yl-phenyl)-[(1R,2R,4S,5R)-2-methyl-5-[[5-(trifluoromethyl)-2-pyridyl]oxy]-3-azabicyclo[2.2.2]octan-3-yl]methanone], the Ki in test [1] was 12 nM; in test [2], 14 nM; in test [3], 2400 nM.
Turning to `Cc1ccc(-n2nccn2)c(C(=O)N2[C@H](C)[C@@H]3CC[C@H]2[C@H](Oc2ccc(C(F)(F)F)cn2)C3)n1` [Example 156, [6-methyl-3-(triazol-2-yl)-2-pyridyl]-[(1R,2R,4S,5R)-2-methyl-5-[[5-(trifluoromethyl)-2-pyridyl]oxy]-3-azabicyclo[2.2.2]octan-3-yl]methanone], the Ki in test [1] came out at 6 nM; in test [2], 10 nM; in test [3], 1100 nM.
For the molecule `C[C@@H]1[C@@H]2CC[C@@H]([C@H](Oc3ccc(C(F)(F)F)cn3)C2)N1C(=O)c1ccccc1-n1nccn1` [Example 157, [(1R,2R,4S,5R)-2-methyl-5-[[5-(trifluoromethyl)-2-pyridyl]oxy]-3-azabicyclo[2.2.2]octan-3-yl]-[2-(triazol-2-yl)phenyl]methanone], the Ki in test [1] stood at 29 nM; in test [2], 129 nM; in test [3], 6000 nM.
For `Cc1ccc(-c2ncccn2)c(C(=O)N2[C@H](C)[C@@H]3CC[C@H]2[C@H](Oc2ccc(C(F)(F)F)cn2)C3)n1` [Example 158, (6-methyl-3-pyrimidin-2-yl-2-pyridyl)-[(1R,2R,4S,5R)-2-methyl-5-[[5-(trifluoromethyl)-2-pyridyl]oxy]-3-azabicyclo[2.2.2]octan-3-yl]methanone], the Ki in test [1] was 35 nM; in test [2], 138 nM; in test [3], 2700 nM.
For `C[C@@H]1[C@@H]2CC[C@@H]([C@H](Oc3ccc(C(F)(F)F)cn3)C2)N1C(=O)c1ncccc1-n1nccn1` [Example 159, [(1R,2R,4S,5R)-2-methyl-5-[[5-(trifluoromethyl)-2-pyridyl]oxy]-3-azabicyclo[2.2.2]octan-3-yl]-[3-(triazol-2-yl)-2-pyridyl]methanone], the figures for the Ki in test [1], in test [2] and in test [3] were 14 nM, 41 nM and 2800 nM, respectively.
As to `Cc1cnc(C(=O)N2[C@H](C)[C@@H]3CC[C@H]2[C@H](Oc2ccc(C(F)(F)F)cn2)C3)c(-n2nccn2)c1` [Example 160, [5-methyl-3-(triazol-2-yl)-2-pyridyl]-[(1R,2R,4S,5R)-2-methyl-5-[[5-(trifluoromethyl)-2-pyridyl]oxy]-3-azabicyclo[2.2.2]octan-3-yl]methanone], the Ki in test [1] is 8 nM; in test [2], 11 nM; in test [3], 872 nM.
For the molecule `Cc1cnc(C(=O)N2[C@H](C)[C@@H]3CC[C@H]2[C@H](Oc2ccc(C(F)(F)F)cn2)C3)c(-c2ncccn2)c1` [Example 161, (5-methyl-3-pyrimidin-2-yl-2-pyridyl)-[(1R,2R,4S,5R)-2-methyl-5-[[5-(trifluoromethyl)-2-pyridyl]oxy]-3-azabicyclo[2.2.2]octan-3-yl]methanone], the Ki stood at 4 nM in test [1], 8 nM in test [2] and 5000 nM in test [3].
For `C[C@@H]1[C@@H]2CC[C@@H]([C@@H](Oc3ccc(C(F)(F)F)cn3)C2)N1C(=O)c1cccc(F)c1-c1ncccn1` [Example 162, (3-fluoro-2-pyrimidin-2-yl-phenyl)-[(1R,2R,4S,5S)-2-methyl-5-[[5-(trifluoromethyl)-2-pyridyl]oxy]-3-azabicyclo[2.2.2]octan-3-yl]methanone] the same measures were 236 nM, 106 nM and more than 10000 nM.
For `C[C@@H]1[C@H]2C[C@@H](Oc3ccc(C(F)(F)F)cn3)[C@H](C2)N1C(=O)c1ccccc1-n1ncc(CCCF)n1` [Example 168, [2-[4-(3-fluoropropyl)triazol-2-yl]phenyl]-[(1R,2R,4S,5R)-2-methyl-5-[[5-(trifluoromethyl)-2-pyridyl]oxy]-3-azabicyclo[2.2.1]heptan-3-yl]methanone] the same measures were 14 nM, 20 nM and 1380 nM.
`C[C@@H]1[C@H]2C[C@@H](Oc3ccc(C(F)(F)F)cn3)[C@H](C2)N1C(=O)c1ccccc1-c1ccc(F)nc1` [Example 171, [2-(6-fluoro-3-pyridyl)phenyl]-[(1R,2R,4S,5R)-2-methyl-5-[[5-(trifluoromethyl)-2-pyridyl]oxy]-3-azabicyclo[2.2.1]heptan-3-yl]methanone]: the Ki was 23 nM in test [1], 17 nM in test [2] and 1600 nM in test [3].
For `C[C@@H]1[C@H]2C[C@@H](Oc3ccc(C(F)(F)F)cn3)[C@H](C2)N1C(=O)c1ccccc1-c1ccnc(F)c1` [Example 172, [2-(2-fluoro-4-pyridyl)phenyl]-[(1R,2R,4S,5R)-2-methyl-5-[[5-(trifluoromethyl)-2-pyridyl]oxy]-3-azabicyclo[2.2.1]heptan-3-yl]methanone] the same measures were 66 nM, 67 nM and more than 10000 nM.
For `C[C@@H]1[C@H]2C[C@@H](Oc3ccc(C(F)(F)F)cn3)[C@H](C2)N1C(=O)c1ccccc1-c1cccc([N+](=O)[O-])n1` [Example 174, [(1R,2R,4S,5R)-2-methyl-5-[[5-(trifluoromethyl)-2-pyridyl]oxy]-3-azabicyclo[2.2.1]heptan-3-yl]-[2-(6-nitro-2-pyridyl)phenyl]methanone], the Ki in test [1] was found to be 8 nM; in test [2] it was 9 nM; in test [3], 3940 nM.
With `C[C@@H]1[C@H]2C[C@@H](Oc3ccc(C(F)(F)F)cn3)[C@H](C2)N1C(=O)c1ccccc1-c1cccc(Br)n1` [Example 175, [2-(6-bromo-2-pyridyl)phenyl]-[(1R,2R,4S,5R)-2-methyl-5-[[5-(trifluoromethyl)-2-pyridyl]oxy]-3-azabicyclo[2.2.1]heptan-3-yl]methanone], the Ki came out at 13 nM in test [1], 15 nM in test [2] and 837 nM in test [3].
On to `Cc1ccc(-n2nccn2)c(C(=O)N2[C@H](CO)[C@@H]3CC[C@H]2[C@H](Oc2ccc(C(F)(F)F)cn2)C3)n1` [Example 176, [(1R,2S,4S,5R)-2-(hydroxymethyl)-5-[[5-(trifluoromethyl)-2-pyridyl]oxy]-3-azabicyclo[2.2.2]octan-3-yl]-[6-methyl-3-(triazol-2-yl)-2-pyridyl]methanone], for which the Ki amounted to 33 nM in test [1], 35 nM in test [2] and 8100 nM in test [3].
Consider `Cc1ccc(C(=O)N2[C@H](C)[C@H]3C[C@@H](Oc4ccc(Cl)cn4)[C@@H]2C3)c(-n2nccn2)n1` [Example 193, [(1R,2R,4S,5R)-5-[(5-chloro-2-pyridyl)oxy]-2-methyl-3-azabicyclo[2.2.1]heptan-3-yl]-[6-methyl-2-(triazol-2-yl)-3-pyridyl]methanone], for which the figures for the Ki in test [1], in test [2] and in test [3] were 8 nM, 8 nM and 4700 nM, respectively.
In the case of `Cc1cnc(-n2nccn2)c(C(=O)N2[C@H](C)[C@H]3C[C@@H](Oc4ccc(Cl)cn4)[C@@H]2C3)c1` [Example 194, [(1R,2R,4S,5R)-5-[(5-chloro-2-pyridyl)oxy]-2-methyl-3-azabicyclo[2.2.1]heptan-3-yl]-[5-methyl-2-(triazol-2-yl)-3-pyridyl]methanone], the figures for the inhibition constant Ki in test [1], in test [2] and in test [3] were 5 nM, 5 nM and 2900 nM, respectively.
For the molecule `[2H]C1([2H])[C@H]2C[C@@H]([C@@H]1Oc1ccc(Cl)cn1)N(C(=O)c1cccc(F)c1-n1nccn1)[C@@H]2C` [Example 197, [(1R,3R,4S,6R)-3-[(5-chloro-2-pyridyl)oxy]-2,2-dideuterio-6-methyl-5-azabicyclo[2.2.1]heptan-5-yl]-[3-fluoro-2-(triazol-2-yl)phenyl]methanone], the Ki in test [1] is 4 nM; in test [2] it was 3 nM; in test [3] it was 481 nM.
